{"source": "patent US20250206713A1", "about": "“2-[(2-OXO-4-PHENYL-2H-CHROMEN-7-YL)OXY] PROPANAMIDO DERIVATIVES” (LUNELLA BIOTECH, INC., priority 2022, published 2025)", "key": {"[1]": {"test_system": "MCF-7 cells", "assay": "3D anchorage independent growth assay (mammosphere formation assay)", "assay_type": "cell-based, human", "details": "for IC50: MCF-7 mammosphere formation, approximate, read from figure, read-out: IC50 against MCF-7 cells (mammosphere formation); for inhibition of MCF-7 cells across tested concentrations (mammosphere formation): in words, concentration range as given in the value; for potency relative to Compound [I], MCF-7 mammosphere formation: times / fold versus Compound [I]", "experimental": "The medium was changed 2-3 times/week.\n3D Anchorage Independent Growth Assay: This assay is also referred to as the mammosphere formation assay. A single-cell suspension was prepared using enzymatic, and manual disaggregation (25-g needle). Then, cells were plated at a density of 500 cells/cm2 in mammosphere medium (DMEM-F12+1X B-27 Plus Supplement+20 ng/ml EGF+Pen/Strep) under non-adherent conditions, in culture dishes pre-coated with (2-hydroxyethylmethacrylate) (poly-HEMA, Sigma Aldrich Inc.), called “mammosphere plates.” Cells were grown for 5 days and maintained in a humidified incubator at 37° C. After 5 days of culture, 3D-mammospheres >50 μm were counted using an eye piece (“graticule”), and the percentage of cells plated which formed spheres was calculated and is referred to as percent mammosphere formation, and was normalized to one (1=100% MFE). 3D mammosphere formation efficiency (MFE) was analyzed in both the ATP-low and ATP-high sub-populations of cells. All 3D mammosphere experiments were performed in triplicate, at least 3 times independently."}, "[2]": {"test_system": "MCF-7 cells", "assay": "SRB assay (cell viability) on MCF-7 cells", "details": "for concentration at which cytotoxicity towards MCF-7 cells starts (SRB assay): 72 hours; for cytotoxicity towards MCF-7 cells (SRB assay): in words", "quoted_text": "(§3) The human breast adenocarcinoma cell line MCF-7 was from the American Type Culture Collection (ATCC). hTERT-BJ1 cells were from Clontech, Inc. MCF-7 and hTERT-BJ 1 cells were grown in DMEM supplemented with 10% fetal bovine serum, GlutaMAX and 1% penicillin-streptomycin and incubated at 37 C in a humidified 5% C02 incubator. The medium was changed 2-3 times/week.\n(§4) The inventors initially used the sulphorhodamine (SRB) assay, which is based on the measurement of cellular protein content. After treatment for 72 hours in 96-well plates, cells were fixed with 10% trichloroacetic acid (TCA) for 1 hour in the cold room, and were dried overnight at room temperature. Then, cells were incubated with SRB for 15 min, washed twice with 1% acetic acid, and air dried for at least 1 hour. Finally, the protein-bound dye was dissolved in a 10 mM Tris, pH 8.8 solution and read using the plate reader at 540-nm. […] Prominent cytotoxicity was defined as fewer than 30% of cells still on the plate."}, "[3]": {"test_system": "BJ1-hTERT cells", "assay": "SRB assay (cell viability) on BJ1-hTERT cells", "details": "72 hours", "quoted_text": "as §3, §4"}, "[4]": {"test_system": "BJ1-hTERT cells", "quoted_text": "as §3, §4"}, "[5]": {"test_system": "MCF-7 cells", "quoted_text": "as §3, §4"}, "[6]": {"test_system": "chick embryo", "assay": "CAM assay, chick embryo toxicity", "assay_type": "in vivo, chicken", "details": "chick embryos; for Alive / Dead: of 18 total", "experimental": "(§1) Further evaluation of both efficacy and toxicity was performed on human breast tumors initiated from the MDA-MB-231 cell line in chicken embryos using the chick chorioallantoic membrane assay (“CAM Assay”) available from Inovotion (Cambridge, Massachusetts). […] An inoculum of 1×10^6 MDA-MB-231 cells was added onto the CAM of each egg (day E9) and then eggs were randomized into groups. On day E10, tumors were detectable and they were then treated daily for 8 days with vehicle alone (1% DMSO in PBS), or a compound of the present approach. After 8 days of drug administration, on day E18 all tumors were weighed, and the lower CAM was collected to evaluate the number of metastatic cells, as analyzed by qPCR with specific primers for Human Alu sequences."}, "[7]": {"test_system": "adherent MCF7 cells", "assay": "Metabolic flux analysis, mitochondrial oxygen consumption rate (Seahorse XFe96)", "assay_type": "cell-based, human", "details": "2.5 μM, versus vehicle-alone control", "experimental": "(§2) FIGS. 11A-D show mitochondrial respiration, basal respiration, maximal respiration, and ATP production results for metabolic flux analysis of adherent MCF7 cells were treated with Compound [III] at 2.5 μM. After treatment, the mitochondrial oxygen consumption rate (OCR) was measured using the Seahorse XFe96 analyzer. Data is expressed as percentage of OCR versus control."}, "[8]": {"test_system": "human breast tumors initiated from the MDA-MB-231 cell line in chicken embryos", "assay": "CAM assay, tumor growth", "assay_type": "in vivo", "details": "MDA-MB-231 tumors, treated daily for 8 days, different concentrations", "experimental": "as §1"}, "[9]": {"test_system": "adherent MCF7 cells", "assay": "Glycolytic function analysis (ECAR)", "assay_type": "cell-based, human", "details": "2.5 μM, versus control", "experimental": "as §2\nFIGS. 12A-D show the results of glycolytic function analysis for treatment with Compound [III] at 2.5 μM. Glycolytic function, basal glycolysis, induced glycolysis, and compensatory glycolysis, respectively. […] All data was normalized for cell number. Statistical analysis was conducted using one-way ANOVA."}, "[10]": {"test_system": "MDA-MB-231 cancer cell metastasis", "assay": "CAM assay, metastatic invasion (qPCR for Human Alu sequences in lower CAM)", "assay_type": "in vivo", "details": "MDA-MB-231, lower CAM, treated daily for 8 days, different concentrations", "experimental": "as §1"}}, "note": "“Also recorded” adds a separate entry of the source. Like-named read-outs stand apart in the source and are kept apart here."}
{"molecule": "CCCCCCCCCCCCCC(=O)Nc1ccc(-c2cc(=O)oc3cc(O[C@H](C)C(=O)N4CCC[C@H](C(=O)O)C4)ccc23)c(Cl)c1", "note": "[Compound [II], (3S)-1-[(2R)-2-[4-[2-Chloro-4-(tetradecanoylamino)phenyl]-2-oxo-chromen-7-yl]oxypropanoyl]piperidine-3-carboxylic acid]", "values": [{"measurement": "IC50", "setting": "[1]; Homo sapiens, MCF7", "value": "~5", "unit": "µM"}, {"measurement": "inhibition at 10 µM", "setting": "[1]; Homo sapiens, MCF7, at 10 μM", "value": "> 50", "unit": "%"}, {"measurement": "inhibition at 100 µM", "setting": "[1]; Homo sapiens, MCF7", "value": 100, "unit": "%"}, {"measurement": "inhibition of MCF-7 cells across tested concentrations (mammosphere formation)", "setting": "[1]", "value": "dose-dependent inhibition of MCF-7 cells at all tested concentrations, ranging from 0.1 μM to 100 μM"}, {"measurement": "potency relative to Compound [I], MCF-7 mammosphere formation", "setting": "[1]", "value": 10}, {"measurement": "concentration at which cytotoxicity towards MCF-7 cells starts (SRB assay)", "setting": "[2]", "value": "≥ 50", "unit": "µM"}, {"measurement": "concentration at which cytotoxicity towards BJ1-hTERT cells starts (SRB assay)", "setting": "[3]", "value": "≥ 50", "unit": "µM"}]}
{"molecule": "CCCCCCCCCCCCCC(=O)Nc1cc(F)ccc1-c1cc(=O)oc2cc(O[C@H](C)C(=O)N(CC)C(=O)NCCCN(C)C)ccc12", "note": "[Compound [IV], N-[2-[7-[(1R)-2-[3-(Dimethylamino)propylcarbamoyl-ethyl-amino]-1-methyl-2-oxo-ethoxy]-2-oxo-chromen-4-yl]-5-fluoro-phenyl]tetradecanamide]", "values": [{"measurement": "inhibition at 2.5 µM", "setting": "[1]; Homo sapiens, MCF7, at 2.5 μM", "value": "> 50", "unit": "%"}, {"measurement": "inhibition of MCF-7 cells (mammosphere formation)", "setting": "[1]; at 10 μM", "value": "near complete inhibition"}, {"measurement": "inhibition of MCF-7 cells across tested concentrations (mammosphere formation)", "setting": "[1]", "value": "dose-dependent inhibition of MCF-7 cells at all tested concentrations, ranging from 1 μM to 10 μM"}, {"measurement": "concentration at which cytotoxicity towards MCF-7 cells starts (SRB assay)", "setting": "[2]", "value": "≥ 5", "unit": "µM"}]}
{"molecule": "C[C@@H](Oc1ccc2c(-c3ccc(F)cc3Cl)cc(=O)oc2c1)C(=O)N1CCC[C@H](C(=O)O)C1", "note": "[Compound [I], 3-piperidinecarboxylic acid, 1-[(2R)-2-[[4-(2-chloro-4-fluorophenyl)-2-oxo-2H-1-benzopyran-7-yl]oxy]-1-oxopropyl]-, (3S)-, reference compound]", "values": [{"measurement": "IC50", "setting": "[1]; Homo sapiens, MCF7", "value": "~50", "unit": "µM"}, {"measurement": "inhibition at 100 µM", "setting": "[1]; Homo sapiens, MCF7", "value": "> 50", "unit": "%"}, {"measurement": "inhibition of MCF-7 cells (mammosphere formation)", "setting": "[1]; at 5 μM", "value": "showed inhibition"}, {"measurement": "cytotoxicity towards BJ1-hTERT cells (SRB assay)", "setting": "[4]", "value": "did not exhibit cytotoxicity"}, {"measurement": "cytotoxicity towards MCF-7 cells (SRB assay)", "setting": "[5]", "value": "did not exhibit cytotoxicity"}]}
{"molecule": "CCCCCCCCCCCCCC(=O)Nc1cc(F)ccc1-c1cc(=O)oc2cc(O[C@H](C)C(=O)O)ccc12", "note": "[Compound [VII], (2R)-2-[4-[4-Fluoro-2-(tetradecanoylamino)phenyl]-2-oxo-chromen-7-yl]oxypropanoic acid]", "values": [{"measurement": "inhibition at 1 µM", "setting": "[1]; Homo sapiens, MCF7, at 1 μM", "value": "> 50", "unit": "%"}, {"measurement": "inhibition at 100 µM", "setting": "[1]; Homo sapiens, MCF7", "value": 100, "unit": "%"}, {"measurement": "inhibition of MCF-7 cells across tested concentrations (mammosphere formation)", "setting": "[1]", "value": "inhibitory activity can be seen at all tested concentrations, from 1 μM to 100 μM"}, {"measurement": "cytotoxicity towards MCF-7 cells (SRB assay)", "setting": "[2]", "value": "little toxicity across the tested concentrations below 100 μM"}]}
{"molecule": "CCCCCCCCCCCCCC(=O)Nc1ccc(-c2cc(=O)oc3cc(O[C@H](C)C(=O)O)ccc23)c(Cl)c1", "note": "[Compound [VI], (2R)-2-[4-[2-chloro-4-(tetradecanoylamino)phenyl]-2-oxo-chromen-7-yl]oxypropanoic acid]", "values": [{"measurement": "inhibition at 10 µM", "setting": "[1]; Homo sapiens, MCF7, at 10 μM", "value": "> 50", "unit": "%"}, {"measurement": "inhibition of MCF-7 cells across tested concentrations (mammosphere formation)", "setting": "[1]", "value": "inhibitory activity can be seen at all tested concentrations, from 1 μM to 100 μM"}, {"measurement": "cytotoxicity towards MCF-7 cells (SRB assay)", "setting": "[2]", "value": "little toxicity across the tested concentrations"}]}
{"molecule": "CCCCCCCCCCCCCC(=O)Nc1ccc(-c2cc(=O)oc3cc(O[C@H](C)C(=O)N(CC)CC(=O)NCCN(C)C)ccc23)c(Cl)c1", "note": "[Compound [V], N-[3-Chloro-4-[7-[(1R)-2-[[2-[2-(dimethylamino)ethylamino]-2-oxo-ethyl]-ethyl-amino]-1-methyl-2-oxo-ethoxy]-2-oxo-chromen-4-yl]phenyl]tetradecanamide]", "values": [{"measurement": "inhibition at 0.5 µM", "setting": "[1]; Homo sapiens, MCF7, at 0.5 μM", "value": "> 50", "unit": "%"}, {"measurement": "inhibition at 5 µM", "setting": "[1]; Homo sapiens, MCF7, at 5 μM", "value": 100, "unit": "%"}, {"measurement": "inhibition of MCF-7 cells across tested concentrations (mammosphere formation)", "setting": "[1]", "value": "effectively inhibited MCF-7 cells at all tested concentrations, ranging from 0.5 μM to 10 μM"}, {"measurement": "concentration at which cytotoxicity towards MCF-7 cells starts (SRB assay)", "setting": "[2]", "value": "≥ 5", "unit": "µM"}, {"measurement": "concentration at which cytotoxicity towards BJ1-hTERT cells starts (SRB assay)", "setting": "[3]", "value": "≥ 5", "unit": "µM"}]}
{"molecule": "tert-Butyl-N-[3-chloro-4-[7-[(1R)-2-[[2-[2-(dimethylamino)ethylamino]-2-oxo-ethyl]-ethyl-amino]-1-methyl-2-oxo-ethoxy]-2-oxo-chromen-4-yl]phenyl]carbamate [Compound [III]]", "values": [{"measurement": "inhibition of MCF-7 cells across tested concentrations (mammosphere formation)", "setting": "[1]", "value": "dose-dependent inhibition of MCF-7 cells at all tested concentrations, ranging from 1 μM to 10 μM"}, {"measurement": "potency relative to Compound [I], MCF-7 mammosphere formation", "setting": "[1]", "value": "twenty-fold improvement"}, {"measurement": "% Alive", "setting": "[6]; 100 μM", "value": 83.33, "unit": "%"}, {"measurement": "% Dead", "setting": "[6]; 100 μM", "value": 16.67, "unit": "%"}, {"measurement": "Alive", "setting": "[6]; 100 μM", "value": 15}, {"measurement": "Dead", "setting": "[6]; 100 μM", "value": 3}, {"measurement": "% Alive", "setting": "[6]; 250 μM", "value": 100, "unit": "%"}, {"measurement": "% Dead", "setting": "[6]; 250 μM", "value": 0, "unit": "%"}, {"measurement": "Alive", "setting": "[6]; 250 μM", "value": 18}, {"measurement": "Dead", "setting": "[6]; 250 μM", "value": 0}, {"measurement": "% Alive", "setting": "[6]; 500 μM", "value": 94.44, "unit": "%"}, {"measurement": "% Dead", "setting": "[6]; 500 μM", "value": 5.56, "unit": "%"}, {"measurement": "Alive", "setting": "[6]; 500 μM", "value": 17}, {"measurement": "Dead", "setting": "[6]; 500 μM", "value": 1}, {"measurement": "toxicity assessment (CAM assay)", "setting": "[6]; in words", "value": "non-toxic towards normal cells"}, {"measurement": "concentration at which cytotoxicity towards MCF-7 cells starts (SRB assay)", "setting": "[2]", "value": "≥ 10", "unit": "µM"}, {"measurement": "ATP production levels", "setting": "[7]", "value": "significantly inhibited"}, {"measurement": "basal OCR (basal respiration)", "setting": "[7]", "value": "significantly inhibited"}, {"measurement": "maximal OCR (maximal respiration)", "setting": "[7]", "value": "significantly inhibited"}, {"measurement": "tumor growth (CAM assay)", "setting": "[8]", "value": "dose-dependent reduction in tumor growth"}, {"measurement": "ECAR levels (glycolysis)", "setting": "[9]", "value": "largely comparable between the control and the demonstrative compound; also recorded: little or no effects on glycolysis"}, {"measurement": "metastatic invasion (CAM assay)", "setting": "[10]", "value": "dose-dependent reduction in metastasis"}, {"measurement": "concentration at which cytotoxicity towards BJ1-hTERT cells starts (SRB assay)", "setting": "[3]", "value": "≥ 10", "unit": "µM"}]}
